# According to US12378224B2 (Dong-A Socio Holdings Co., Ltd., priority 2016, dated 2025):
# Molecular target: human c-MER catalytic domain (Homo sapiens (Human), UniProt Q12866)
# Assay: TR-FRET Kinase Activity Biochemical Assay (LanthaScreen)
# Conditions: 10 uM ATP, 1 hour, kinase not given
# Excerpt: For the SAR (structure-activity relationship) and compound screening, LanthaScreen™ TR-FRET (Time-Resolved fluorescence energy transfer) assay was employed using the phospho-tyrosine specific Terbium (Tb)-labelded antibody with a fluorescein labeled poly-GT (glutamate-tyrosine) as a substrate. Upon excitation at 340 nm by UV, the energy from Tb donor of the antibody is transferred to the fluorescein of the phosphorylated poly GT substrate, and fluorescein emits light at 520 nm. The ratio between the intensity of […] was used to quantify the level of kinase activity. The recombinant proteins of human c-MER and AXL catalytic domains, Fluorescein-labeled poly-GT substrate, Tb-labeled anti-phosphorylated tyrosine antibodies, the kinase assay buffer, and 0.5M EDTA solution were purchased (Life technologies, USA). The TR-FRET assays were carried out in the white low volume 384-well plate (Corning, USA). […] 10 mM EDTA was added to terminate the enzyme reaction, and the level of phosphorylation of poly-GT substrate was determined following 30 min incubation with 2 nM Tb-labeled antibody. The fluorescence intensity was measured with Envision™ plate reader (PerkinElmer, USA).
# Sequence of human c-MER catalytic domain (Q12866 587-858): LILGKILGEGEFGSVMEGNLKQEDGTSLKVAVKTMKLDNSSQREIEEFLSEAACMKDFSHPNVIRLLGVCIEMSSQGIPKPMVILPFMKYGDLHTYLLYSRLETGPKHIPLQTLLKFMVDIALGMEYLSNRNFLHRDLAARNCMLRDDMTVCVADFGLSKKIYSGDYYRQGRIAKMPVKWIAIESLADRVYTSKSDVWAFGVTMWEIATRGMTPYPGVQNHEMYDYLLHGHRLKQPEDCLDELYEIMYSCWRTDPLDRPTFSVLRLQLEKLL
row,SMILES,IC50
1,"Cn1cc(-c2cnc(N)c(C(=O)N[C@@H]3CCN(CC(=O)c4ccccc4)C3)c2)cn1 [Example 215, (R)-2-amino-5-(1-methyl-1H-pyrazol-4-yl)-N-(1-(2-oxo-2-phenylethyl)pyrrolidin-3-yl)nicotinamide]",> 1000 nM
2,"COc1cccc(CN2CC[C@@H](NC(=O)c3cc(-c4cnn(C)c4)cnc3N)C2)c1OC [Example 217, (R)-2-amino-N-(1-(2,3-dimethoxybenzyl)pyrrolidin-3-yl)-5-(1-methyl-1H-pyrazol-4-yl)nicotinamide]",100 to 1000 nM
3,"Cn1cc(-c2cnc(N)c(C(=O)N[C@@H]3CCN(Cc4cccc(Oc5ccccc5)c4)C3)c2)cn1 [Example 221, (R)-2-amino-5-(1-methyl-1H-pyrazol-4-yl)-N-(1-(3-phenoxybenzyl)pyrrolidin-3-yl)nicotinamide]",> 1000 nM
4,"Cn1cc(-c2cnc(N)c(C(=O)N[C@@H]3CCN(Cc4cccc(OCc5ccccc5)c4)C3)c2)cn1 [Example 222, (R)-2-amino-N-(1-(3-(benzyloxy)benzyl)pyrrolidin-3-yl)-5-(1-methyl-1H-pyrazol-4-yl)nicotinamide]",100 to 1000 nM
5,"Cn1cc(-c2cnc(N)c(C(=O)N[C@@H]3CCN(Cc4cc(Cl)cc(Cl)c4O)C3)c2)cn1 [Example 223, (R)-2-amino-N-(1-(3,5-dichloro-2-hydroxybenzyl)pyrrolidin-3-yl)-5-(1-methyl-1H-pyrazol-4-yl)nicotinamide]",100 to 1000 nM
6,"Cn1cc(-c2cnc(N)c(C(=O)N[C@@H]3CCN(CCc4cccc(Br)c4)C3)c2)cn1 [Example 234, (R)-2-amino-N-(1-(3-bromophenethyl)pyrrolidin-3-yl)-5-(1-methyl-1H-pyrazol-4-yl)nicotinamide]",100 to 1000 nM
7,"Nc1ncc(-c2ccc(C(=O)N3CCOCC3)cc2)cc1C(=O)N[C@@H]1CCN(Cc2ccc(Cl)cc2)C1 [Example 235, (R)-2-amino-N-(1-(4-chlorobenzyl)pyrrolidin-3-yl)-5-(4-(morpholine-4-carbonyl)phenyl)nicotinamide]",100 to 1000 nM
8,"CN1CCN(Cc2ccc(-c3cnc(N)c(C(=O)N[C@@H]4CCN(Cc5ccc(Cl)cc5)C4)c3)cc2)CC1 [Example 236, (R)-2-amino-N-(1-(4-chlorobenzyl)pyrrolidin-3-yl)-5-(4-((4-methylpiperazin-1-yl)methyl)phenyl)nicotinamide]",100 to 1000 nM
9,"N#Cc1ccc(-c2cnc(N)c(C(=O)N[C@@H]3CCN(Cc4ccc(Cl)cc4)C3)c2)cc1 [Example 238, (R)-2-amino-N-(1-(4-chlorobenzyl)pyrrolidin-3-yl)-5-(4-cyanophenyl)nicotinamide]",> 1000 nM
10,"CC(=O)N1CCC(n2cc(-c3cnc(N)c(C(=O)N[C@@H]4CCN(Cc5ccccc5)C4)c3)cn2)CC1 [Example 240, (R)-5-(1-(1-acetylpiperidin-4-yl)-1H-pyrazol-4-yl)-2-amino-N-(1-benzylpyrrolidin-3-yl)nicotinamide]",100 to 1000 nM
11,"Cn1cc(-c2cnc(N)c(C(=O)N[C@@H]3CCN(Cc4ccccc4-c4cccc(CO)c4)C3)c2)cn1 [Example 247, (R)-2-amino-N-(1-((3′-(hydroxymethyl)-[1,1′-biphenyl]-2-yl)methyl)pyrrolidin-3-yl)-5-(1-methyl-1H-pyrazol-4-yl)nicotinamide]",100 to 1000 nM
12,"Cn1cc(-c2cnc(N)c(C(=O)N[C@@H]3CCN(Cc4ccccc4-c4ccc(CO)cc4)C3)c2)cn1 [Example 248, (R)-2-amino-N-(1-((4′-(hydroxymethyl)-[1,1′-biphenyl]-2-yl)methyl)pyrrolidin-3-yl)-5-(1-methyl-1H-pyrazol-4-yl)nicotinamide]",100 to 1000 nM
13,"Cn1cc(-c2cnc(N)c(C(=O)N[C@@H]3CCN(Cc4ccc(F)c(-c5ccccc5)c4)C3)c2)cn1 [Example 249, (R)-2-amino-N-(1-((6-fluoro-[1,1′-biphenyl]-3-yl)methyl)pyrrolidin-3-yl)-5-(1-methyl-1H-pyrazol-4-yl)nicotinamide]",100 to 1000 nM
